In patent US8252814B2, “Agents and crystals for improving excretory potency of urinary bladder” (priority 1998, dated 2012):
Like-named read-outs stand apart in the source and are kept apart here. Marks after values point to notes of the source that are not given here.

Columns and labels:
[1] = system: guinea pigs; experiment: Effect on the flow rate of urine in guinea pigs, single or combined use, Experimental Example 4; assay type: in vivo, Hartley male guinea pigs; settings: guinea pig; for Improvement (%): 10 minutes after administration
Text: Effect on the flow rate of urine by single or combined use of Compounds of Reference Examples, distigmine, prazosin, and tamsulosin was examined using Hartley male guinea pigs. Four to six Hartley male guinea pigs weighing about 350 g (SLC) were employed in each treated group. Guinea pigs were anesthetized with urethane, and held, and the bladder was exposed. Two polyethylene tubes (PE-100) were inserted into the bladder. One of the tubes was used in infusion of physiological saline, and the other used for measurement of the internal pressure of the bladder. Saline was infused continuously at a flow rate of 0.3 mL/min. The infusion was stopped at the time when intermittent urination was confirmed at least 3 times, and the whole saline in bladder was removed. Again, infusion was started, and stopped at the time when a rise of the pressure in bladder was confirmed immediately before urination. Excreted urine was weighed on an electronic force balance (HX-400, A&D). Analogue data of the internal pressure of the bladder and urine weight were input in an AD converter (MP-30, Biopac Systems) and the digital signal was analyzed by means of purpose-made software (Student lab pro 2.1.5, Biopac Systems). Sampling interval of the date was fixed at 0.1 second, and the value of urine weight was differentiated to determine the flow rate of urine. In order to remove data noise of the excretion volume and flow rate of urine, the data was adapted to a lowcut filter at 0.5 Hz.
Measurement was made 2 times before administration of the test compound, and then the test compound was administered intravenously. Again, measurement was made 10 minutes after administration of the test compound.
The average measured value before administration of the test compounds was regarded as the value before administration, and the rate of change of the values from the ante-administration to the post-administration was calculated to compare between the groups by means of the Dunnet's test.

[2] = target: T1, acetylcholinesterase of human erythrocyte origin (Homo sapiens, UniProt P22303); experiment: Measurement of acetylcholinesterase-inhibiting action (acetylthiocholine / Ellman method), Experimental Example 1; assay type: biochemical; settings: at least 3 experiments
T1 construct: Acetylcholinesterase of human erythrocyte origin (Sigma Chemical Co.); purchased Sigma Chemical Co; host or cells: human erythrocytes (natural source)
T1 sequence (P22303 32-617 isoform P22303-2 limits assumed): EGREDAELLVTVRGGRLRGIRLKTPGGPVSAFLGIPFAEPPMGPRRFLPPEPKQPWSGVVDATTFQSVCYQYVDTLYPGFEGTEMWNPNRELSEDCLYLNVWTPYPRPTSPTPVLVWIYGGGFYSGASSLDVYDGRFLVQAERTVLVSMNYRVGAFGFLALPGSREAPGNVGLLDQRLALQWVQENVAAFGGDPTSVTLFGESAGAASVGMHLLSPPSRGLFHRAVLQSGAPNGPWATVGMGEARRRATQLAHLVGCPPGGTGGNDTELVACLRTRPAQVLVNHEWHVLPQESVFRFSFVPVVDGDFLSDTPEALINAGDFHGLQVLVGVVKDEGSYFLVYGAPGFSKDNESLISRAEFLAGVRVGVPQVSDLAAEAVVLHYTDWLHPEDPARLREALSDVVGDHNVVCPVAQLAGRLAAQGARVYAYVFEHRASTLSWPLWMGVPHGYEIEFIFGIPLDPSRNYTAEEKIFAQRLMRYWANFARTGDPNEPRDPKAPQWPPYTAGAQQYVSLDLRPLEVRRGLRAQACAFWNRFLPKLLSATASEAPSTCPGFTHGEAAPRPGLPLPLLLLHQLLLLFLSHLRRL
Experimental: Acetylcholinesterase-inhibiting action of the compounds disclosed in Reference Examples was measured using acetylcholinesterase of human erythrocyte origin according to the acetylthiocholine method (Ellman method).
Acetylcholinesterase of human erythrocyte origin (Sigma Chemical Co.) was dissolved in distilled water at a concentration of 0.2 IU/mL to give an enzyme authentic sample. To a 96-well microplate was dispensed 20 μL of drug solution, 30 μL of 80 mM Tris-HCl (pH 7.4), 50 μL of enzyme authentic sample and 50 μL of 5 mM 5,5-dithio-bis(2-nitrobenzoic acid) (Sigma Chemical Co.), and the plate was shaken for 10 seconds. Then, 50 μL of acetylthiocholine iodide (Sigma Chemical Co.) was added, and the plate was again shaken. Immediately after shaking, increase of extinction at […] was measured at intervals of 30 seconds for 10 minutes. The enzyme activity was determined according to the following equation.
The experiment was repeated at least 3 times for each compound to obtain 50% inhibitory concentration (IC50). Moreover, in the same manner as mentioned above, acetylcholinesterase-inhibiting activity of distigmine was measured.

[3] = system: urinary bladder; experiment: Potentiation effect for rhythmic contraction of urinary bladder in guinea pig, Experimental Example 2; assay type: in vivo, Hartley male guinea pigs; settings: Cavia porcellus, iv, read-out: AUC200 (mg/kg, i.v.)
Experimental: Potentiation effect of the compounds disclosed in Reference Examples for rhythmic contraction of urinary bladder was examined using Hartley male guinea pigs. Hartley male guinea pigs (SLC) weighing about 300 g were anesthetized with urethane (1.2 g/kg, i.p.), held, and incised at the midline of abdomen to expose the bladder. The urethra was ligated, and a polyethylene tube (PE-50) was inserted into the bladder. The internal pressure of the bladder was measured with a blood pressure amplifier (Nippon Koden), and the data was collected on a personal computer through an A/D converter (MP-30, Biopac Systems). A proper amount of physiological saline was injected into the bladder through a cannula to induce rhythmic contraction of the to bladder.
The area (AUC) that is formed by a curve of the internal pressure of the bladder and a base line was calculated through analytical software (Studentlab pro 2.1.5, Biopac Systems) to evaluate the effect of the test compounds. The curve of the internal pressure is made based on the bladder contraction immediately before administration of the test compound and the first contraction 5 minutes after the administration. From the dose-dependent curve of AUC, the dose at which AUC before drug administration was increased 2 times (AUC200) was calculated to determine potency of contraction-enhancing effect of the test compounds for the muscle of urinary bladder. In addition, the potency of contraction-enhancing effect of […] for the muscle of bladder was determined in the same manner as mentioned above.

[4] = system: guinea pigs; experiment: Effect on urination efficiency in guinea pigs, Experimental Example 3; assay type: in vivo, Hartley male guinea pigs; settings: guinea pig; for Efficiency of Urination (%) Before adm.: before administration; for Efficiency of Urination (%) After adm. / Improvement of Efficiency (%): 10 minutes after administration
Text: Effect of the compounds of Reference Examples on urination efficiency was examined using Hartley male guinea pigs. Six to ten Hartley male guinea pigs weighing 346.5±3.5 g (SLC) were employed in each treated group. Guinea pigs were anesthetized with urethane, and held, and the bladder was exposed. Two polyethylene tubes (PE-50 and PE-100) were inserted into the bladder. One (PE-50) of the tubes was used in infusion of physiological saline, and the other (PE-100) was used for measurement of the internal pressure of the bladder. Saline was infused continuously at a flow rate of 0.3 mL/min. The infusion was stopped at the time when intermittent urination was confirmed at least 3 times, and the whole saline in bladder was removed. Again, infusion was started, and stopped at the time when a rise of the pressure in bladder was confirmed immediately before urination, and the time required for infusion and the weight of excreted urine were measured. Efficiency of urination was calculated from the following equation. Efficiency of urination (%)=100×Excreted volume (mL)/Infusion time (min)×0.3 (mL/min)
Measurement was made at least 2 times before administration of the test compound, and then the test compound was dissolved in distilled water and administered intravenously. […] Effect by administration of solvents was also confirmed.
The average measured value before administration of the test compounds was regarded as the value before administration, and applied to the paired-t test for a significant difference test with the value after the administration. (** p<0.01, * p<0.05)

[5] = urethane-anesthetized guinea pig, dose at which AUC of bladder internal pressure before drug administration was increased 2 times

Structure (SMILES): COc1cc2nc(N3CCN(C(=O)c4ccco4)CC3)nc(N)c2cc1OC [Prazosin]
- Flow Rate (mL/sec) Ante-admn. ([1]; prazosin 0.1 mg/kg i.v. group, before administration (Table 8)): 0.18 ± 0.03 mL/s
- Flow Rate (mL/sec) Post-admn. ([1]; prazosin 0.1 mg/kg i.v., 10 minutes after administration (Table 8)): 0.17 ± 0.02 mL/s
- Improvement (%) ([1]; prazosin 0.1 mg/kg i.v., control DMSO (Table 8)): 0.97 ± 10.32%

Structure (SMILES): N#Cc1cccc(CN2CCC(CCC(=O)c3cc4c5c(c3)CCN5C(=O)CC4)CC2)c1 [Reference Example 1]
- IC50 [2]: 13.6 nM
- ED (2-fold bladder contraction AUC) [3, 5]: 0.005 mg/kg

Structure (SMILES): O=C(CCC1CCN(Cc2cccc(F)c2)CC1)c1cc2c3c(c1)CCN3C(=O)CC2 [Reference Example 15, 8-[3-[1-[(3-fluorophenyl)methyl]-4-piperidinyl]-1-oxopropyl]-1,2,5,6-tetrahydro-4H-pyrrolo[3,2,1-ij]quinolin-4-one]
- IC50 [2]: 4.4 nM
- Efficiency of Urination (%) Before adm. ([4]; 0.003 mg/kg i.v. group): 71.5 ± 7.9%
- Efficiency of Urination (%) After adm. ([4]; 0.003 mg/kg i.v.): 79.6 ± 6.4%
- Improvement of Efficiency (%) ([4]; 0.003 mg/kg i.v.): 16.2%
- Efficiency of Urination (%) Before adm. ([4]; 0.01 mg/kg i.v. group): 60.0 ± 7.7%
- Efficiency of Urination (%) After adm. ([4]; 0.01 mg/kg i.v.): 93.9 ± 3.0%
- Improvement of Efficiency (%) ([4]; 0.01 mg/kg i.v.): 77.0** %
- Efficiency of Urination (%) Before adm. ([4]; 0.03 mg/kg i.v. group): 65.5 ± 9.0%
- Efficiency of Urination (%) After adm. ([4]; 0.03 mg/kg i.v.): 88.9 ± 3.1%
- Improvement of Efficiency (%) ([4]; 0.03 mg/kg i.v.): 66.2* %
- ED (2-fold bladder contraction AUC) [3, 5]: 0.0013 mg/kg
- Flow Rate (mL/sec) Ante-admn. ([1]; Ref. Ex. 15 0.001 mg/kg i.v. group, before administration (Table 9)): 0.17 ± 0.03 mL/s
- Flow Rate (mL/sec) Post-admn. ([1]; Ref. Ex. 15 0.001 mg/kg i.v., 10 minutes after administration (Table 9)): 0.15 ± 0.02 mL/s
- Improvement (%) ([1]; Ref. Ex. 15 0.001 mg/kg i.v., control distilled water (Table 9)): −6.5 ± 12.1%
- Flow Rate (mL/sec) Ante-admn. ([1]; Ref. Ex. 15 0.01 mg/kg i.v. group, before administration (Table 8)): 0.27 ± 0.03 mL/s
- Flow Rate (mL/sec) Post-admn. ([1]; Ref. Ex. 15 0.01 mg/kg i.v., 10 minutes after administration (Table 8)): 0.29 ± 0.05 mL/s
- Improvement (%) ([1]; Ref. Ex. 15 0.01 mg/kg i.v., control DMSO (Table 8)): 6.81 ± 7.84%

Structure (SMILES): O=C(CCC1CCN(Cc2ccccc2)CC1)c1cc2c3c(c1)CCN3C(=O)CC2 [Reference Example 17, 8-[3-[1-(phenylmethyl)-4-piperidinyl]-1-oxopropyl]-1,2,5,6-tetrahydro-4H-pyrrolo[3,2,1-ij]quinolin-4-one]
- IC50 [2]: 7.8 nM
- ED (2-fold bladder contraction AUC) [3]: 0.0034 mg/kg

Structure (SMILES): CCOc1ccccc1OCCN[C@H](C)Cc1ccc(OC)c(S(N)(=O)=O)c1 [Tamsulosin]
- Flow Rate (mL/sec) Ante-admn. ([1]; tamsulosin 0.1 mg/kg i.v. group, before administration (Table 9)): 0.16 ± 0.01 mL/s
- Flow Rate (mL/sec) Post-admn. ([1]; tamsulosin 0.1 mg/kg i.v., 10 minutes after administration (Table 9)): 0.14 ± 0.02 mL/s
- Improvement (%) ([1]; tamsulosin 0.1 mg/kg i.v., control distilled water (Table 9)): −11.8 ± 4.8%

Structure (SMILES): O=C(CCC1CCN(Cc2cccc(Cl)c2)CC1)c1cc2c3c(c1)CCN3C(=O)CC2 [compound 4]
- IC50 [2]: 10.9 nM
- ED (2-fold bladder contraction AUC) [3, 5]: 0.005 mg/kg

Structure (SMILES): Cc1cccc(CN2CCC(CCC(=O)c3cc4c5c(c3)CCN5C(=O)CC4)CC2)c1 [compound 6]
- IC50 [2]: 18.9 nM
- ED (2-fold bladder contraction AUC) [3, 5]: 0.0049 mg/kg

Structure (SMILES): Cc1ccccc1CN1CCC(CCC(=O)c2cc3c4c(c2)CCN4C(=O)CC3)CC1 [compound 7]
- IC50 [2]: 22.1 nM
- ED (2-fold bladder contraction AUC) [3, 5]: 0.0055 mg/kg

Structure (SMILES): O=C(CCC1CCN(Cc2cccc([N+](=O)[O-])c2)CC1)c1cc2c3c(c1)CCN3C(=O)CC2 [compound 12]
- IC50 [2]: 8.1 nM
- ED (2-fold bladder contraction AUC) [3, 5]: 0.006 mg/kg

Structure (SMILES): O=C(CCC1CCN(Cc2ccccc2O)CC1)c1cc2c3c(c1)CCN3C(=O)CC2 [compound 13]
- IC50 [2]: 5.2 nM
- ED (2-fold bladder contraction AUC) [3, 5]: 0.0013 mg/kg

Structure (SMILES): O=C(CCC1CCN(Cc2ccccc2Cl)CC1)c1cc2c3c(c1)CCN3C(=O)CC2 [compound 14]
- IC50 [2]: 9.9 nM
- ED (2-fold bladder contraction AUC) [3, 5]: 0.0016 mg/kg

Structure (SMILES): O=C(CCC1CCN(Cc2ccccc2)CC1)c1cc2c3c(c1)CC(=O)N3CCC2 [compound 18]
- IC50 [2]: 10.9 nM
- ED (2-fold bladder contraction AUC) [3]: 0.0051 mg/kg

Structure (SMILES): Nc1c2c(nc3ccccc13)CCCC2 [compound 30]
- Efficiency of Urination (%) Before adm. ([4]; 0.3 mg/kg i.v. group (Ref. Ex. 30)): 62.2 ± 5.1%
- Efficiency of Urination (%) After adm. ([4]; 0.3 mg/kg i.v.): 74.5 ± 5.1%
- Improvement of Efficiency (%) ([4]; 0.3 mg/kg i.v.): 22.0** %
- Efficiency of Urination (%) Before adm. ([4]; 1.0 mg/kg i.v. group (Ref. Ex. 30)): 62.8 ± 7.8%
- Efficiency of Urination (%) After adm. ([4]; 1.0 mg/kg i.v.): 84.9 ± 4.8%
- Improvement of Efficiency (%) ([4]; 1.0 mg/kg i.v.): 55.4* %
- Efficiency of Urination (%) Before adm. ([4]; 3.0 mg/kg i.v. group (Ref. Ex. 30)): 65.8 ± 8.9%
- Efficiency of Urination (%) After adm. ([4]; 3.0 mg/kg i.v.): 89.0 ± 2.7%
- Improvement of Efficiency (%) ([4]; 3.0 mg/kg i.v.): 64.2* %
